Test results published in US20240099304A1, “SYNERGISTIC HERBICIDAL COMPOSITIONS OF METAMIFOP” (Parijat Industries (India) Private Limited, priority 2021, published 2024).

Assays:
Type in all cases: in vivo
Brachiaria eruciformis = experiment: Field efficacy on grass weed in soybean, post-emergence foliar application
Procedure: (§1) As described in the Herbicide Handbook of the Weed Science Society of America, Ninth Edition, 2007, p. 429, “synergism” [is] an interaction of two or more factors such that the effect when combined is greater than the predicted effect based on the response to each factor applied separately. In the Colby method, the expected (or predicted) response of a combination of herbicides is calculated by taking the product of the observed response for each individual component of the combination when applied alone divided by 100 and subtracting this value from the sum of the observed response for each component while applied alone. An unexpected enhancement in efficacy of the combination is then determined by comparing the observed response of the combination to the expected (or predicted) response as calculated from the observed response of each individual component alone. If the observed response of the combination is greater than the expected (or predicted) response, or stated conversely, if the difference between the observed and expected response is greater than zero, then the combination is said to be synergistic or unexpectedly effective. (Colby, S. R., Weeds, 1967(15), p. 20-22). The Colby method required only a single dose of each herbicide applied alone and the mixture of both doses.
(§2) Synergy Study: The following formula was used to calculate the expected activity of mixtures containing active ingredients, A and B:
(§3) • A=Observed efficacy of active ingredient (combination of Metamifop and Imidazolinone herbicides) A at the same concentration as used in the mixture. • B=observed efficacy of active ingredient B at the same concentration as used in the mixture. However, following formula was used to calculate the expected activity of mixtures containing three active ingredients, A, B and C:
(§4) • A=observed efficacy of active ingredient (combination of Metamifop and Imidazolinone herbicides) A at the same concentration as used in the mixture. • B=observed efficacy of active ingredient B at the same concentration as used in the mixture. • C=observed efficacy of active ingredient C at the same concentration as used in the mixture.
(§5) EFFICACY STUDY: The field experiments were carried out to test the synergy of the combination Metamifop, Imazethapyr, and Imazamox in India at various locations like in MP, Maharashtra, Karnataka, and Telangana on farmer's field against soybean weeds during Kharif season. The experiment comprising of 15 treatments including premixed binary and ternary combinations along with their stand-alone molecule using a randomized block design replicated thrice. All the treatments were applied as post-emergence foliar application when the weeds reached to two to four leaf stage. The spray was conducted with the help of Battery-operated Knapsack sprayer. The percentage efficacy was calculated after 14 and 21 days after application of herbicides.
(§6) The weeds present in the experimental fields were echinochloa conola, echinochloa crusgalli, brachiaria euriciformis, rottboellia cochinchinensis, cynodon dactylon, parthenium hyterophorus, digera arvensis, cynotis axillaris, acalypha indica, Commelina benghalensis, celosia argentia, cyperus spp.

[1] = test system: Rottboellia cochinchinensis; experiment: as above
Procedure: as §1, §2, §3, §4, §5, §6

Echinochloa crusgalli = experiment: as above
Procedure: as §1, §2, §3, §4, §5, §6

[2] = test system: hard to kill broad leaf weeds; experiment: Field efficacy, summary on broad leaf weeds
Procedure: as §1, §5

Soybean = experiment: Phytotoxicity in Soybean, visual grading on 0-10 scale; set-up: key: visual phytotoxicity grade on 0-10 scale
Procedure: as §5
Phytotoxic effect of herbicidal combination of Metamifop, Imazethapyr and Imazamox in soyabean: Table 5, 10 show the visual observations and grading on phytotoxicity which was recorded for leaf injury on tip/surface, Epinasty/Hyponasty, and wilting etc. on 0-10 scale (as below) at 1, 3, 7, 14 and 21 days after application of the present herbicidal composition.

Commelina benghalensis = experiment: Field efficacy on broad leaf weed in soybean, post-emergence foliar application
Procedure: as §1, §2, §3, §4, §5, §6

Cyanotis axillaris = experiment: as above
Procedure: as §1, §2, §3, §4, §5, §6

Parthenium hysterophorus = experiment: as above
Procedure: as §1, §2, §3, §4, §5, §6

[3] = 14 DAA, Imazethapyr 35 gm ai/ha
[4] = 14 DAA, Imazethapyr 40 gm ai/ha
[5] = 14 DAA, Imazethapyr 50 gm ai/ha
[6] = 14 DAA, Imazethapyr 75.375 gm ai/ha
[7] = 21 DAA, Imazethapyr 35 gm ai/ha
[8] = 21 DAA, Imazethapyr 40 gm ai/ha
[9] = 21 DAA, Imazethapyr 50 gm ai/ha
[10] = 21 DAA, Imazethapyr 75.375 gm ai/ha

## COCc1cnc(C2=NC(C)(C(C)C)C(=O)N2)c(C(=O)O)c1 (stereo not drawn) [Imazamox]
Brachiaria eruciformis; 14 DAA, Imazamox 20 gm ai/ha
  % Weed control burn down symptoms generation Observed: 0%
Brachiaria eruciformis; 14 DAA, Imazamox 30 gm ai/ha
  % Weed control burn down symptoms generation Observed: 0%
Brachiaria eruciformis; 14 DAA, Imazamox 35 gm ai/ha
  % Weed control burn down symptoms generation Observed: 0%
Brachiaria eruciformis; 21 DAA, Imazamox 20 gm ai/ha
  % Weed control burn down symptoms generation Observed: 0%
Brachiaria eruciformis; 21 DAA, Imazamox 30 gm ai/ha
  % Weed control burn down symptoms generation Observed: 0%
Brachiaria eruciformis; 21 DAA, Imazamox 35 gm ai/ha
  % Weed control burn down symptoms generation Observed: 0%
[1]; 14 DAA, Imazamox 20 gm ai/ha
  % Weed control burn down symptoms generation Observed: 0%
[1]; 14 DAA, Imazamox 30 gm ai/ha
  % Weed control burn down symptoms generation Observed: 0%
[1]; 14 DAA, Imazamox 35 gm ai/ha
  % Weed control burn down symptoms generation Observed: 0%
[1]; 21 DAA, Imazamox 20 gm ai/ha
  % Weed control burn down symptoms generation Observed: 0%
[1]; 21 DAA, Imazamox 30 gm ai/ha
  % Weed control burn down symptoms generation Observed: 0%
[1]; 21 DAA, Imazamox 35 gm ai/ha
  % Weed control burn down symptoms generation Observed: 0%
Echinochloa crusgalli; 14 DAA, Imazamox 20 gm ai/ha
  % Weed control burn down symptoms generation Observed: 0%
Echinochloa crusgalli; 14 DAA, Imazamox 30 gm ai/ha
  % Weed control burn down symptoms generation Observed: 0%
Echinochloa crusgalli; 14 DAA, Imazamox 35 gm ai/ha
  % Weed control burn down symptoms generation Observed: 0%
Echinochloa crusgalli; 21 DAA, Imazamox 20 gm ai/ha
  % Weed control burn down symptoms generation Observed: 0%
Echinochloa crusgalli; 21 DAA, Imazamox 30 gm ai/ha
  % Weed control burn down symptoms generation Observed: 0%
Echinochloa crusgalli; 21 DAA, Imazamox 35 gm ai/ha
  % Weed control burn down symptoms generation Observed: 0%
[2]; at 14 days
  Control on targeted weeds, applied alone: no or very less control
[2]; at 21 days
  Control on targeted weeds, applied alone: no or very less control
Soybean; Soybean, 1 DAA, Imazamox 20 gm ai/ha
  Phytotoxicity score: 0
Soybean; Soybean, 1 DAA, Imazamox 30 gm ai/ha
  Phytotoxicity score: 0
Soybean; Soybean, 1 DAA, Imazamox 35 gm ai/ha
  Phytotoxicity score: 0
Soybean; Soybean, 3 DAA, Imazamox 20 gm ai/ha
  Phytotoxicity score: 0
Soybean; Soybean, 3 DAA, Imazamox 30 gm ai/ha
  Phytotoxicity score: 0
Soybean; Soybean, 3 DAA, Imazamox 35 gm ai/ha
  Phytotoxicity score: 0
Soybean; Soybean, 7 DAA, Imazamox 20 gm ai/ha
  Phytotoxicity score: 0
Soybean; Soybean, 7 DAA, Imazamox 30 gm ai/ha
  Phytotoxicity score: 0
Soybean; Soybean, 7 DAA, Imazamox 35 gm ai/ha
  Phytotoxicity score: 0
Soybean; Soybean, 14 DAA, Imazamox 20 gm ai/ha
  Phytotoxicity score: 0
Soybean; Soybean, 14 DAA, Imazamox 30 gm ai/ha
  Phytotoxicity score: 0
Soybean; Soybean, 14 DAA, Imazamox 35 gm ai/ha
  Phytotoxicity score: 0
Soybean; Soybean, 21 DAA, Imazamox 20 gm ai/ha
  Phytotoxicity score: 0
Soybean; Soybean, 21 DAA, Imazamox 30 gm ai/ha
  Phytotoxicity score: 0
Soybean; Soybean, 21 DAA, Imazamox 35 gm ai/ha
  Phytotoxicity score: 0
Commelina benghalensis; 14 DAA, Imazamox 20 gm ai/ha
  % Weed control burn down symptoms generation Observed: 0%
Commelina benghalensis; 14 DAA, Imazamox 30 gm ai/ha
  % Weed control burn down symptoms generation Observed: 4%
Commelina benghalensis; 14 DAA, Imazamox 35 gm ai/ha
  % Weed control burn down symptoms generation Observed: 6%
Commelina benghalensis; 21 DAA, Imazamox 20 gm ai/ha
  % Weed control burn down symptoms generation Observed: 0%
Commelina benghalensis; 21 DAA, Imazamox 30 gm ai/ha
  % Weed control burn down symptoms generation Observed: 0%
Commelina benghalensis; 21 DAA, Imazamox 35 gm ai/ha
  % Weed control burn down symptoms generation Observed: 0%
Cyanotis axillaris; 14 DAA, Imazamox 20 gm ai/ha
  % Weed control burn down symptoms generation Observed: 0%
Cyanotis axillaris; 14 DAA, Imazamox 30 gm ai/ha
  % Weed control burn down symptoms generation Observed: 0%
Cyanotis axillaris; 14 DAA, Imazamox 35 gm ai/ha
  % Weed control burn down symptoms generation Observed: 0%
Cyanotis axillaris; 21 DAA, Imazamox 20 gm ai/ha
  % Weed control burn down symptoms generation Observed: 0%
Cyanotis axillaris; 21 DAA, Imazamox 30 gm ai/ha
  % Weed control burn down symptoms generation Observed: 0%
Cyanotis axillaris; 21 DAA, Imazamox 35 gm ai/ha
  % Weed control burn down symptoms generation Observed: 0%
Parthenium hysterophorus; 14 DAA, Imazamox 20 gm ai/ha
  % Weed control burn down symptoms generation Observed: 0%
Parthenium hysterophorus; 14 DAA, Imazamox 30 gm ai/ha
  % Weed control burn down symptoms generation Observed: 0%
Parthenium hysterophorus; 14 DAA, Imazamox 35 gm ai/ha
  % Weed control burn down symptoms generation Observed: 0%
Parthenium hysterophorus; 21 DAA, Imazamox 20 gm ai/ha
  % Weed control burn down symptoms generation Observed: 0%
Parthenium hysterophorus; 21 DAA, Imazamox 30 gm ai/ha
  % Weed control burn down symptoms generation Observed: 0%
Parthenium hysterophorus; 21 DAA, Imazamox 35 gm ai/ha
  % Weed control burn down symptoms generation Observed: 0%

## CCc1cnc(C2=NC(C)(C(C)C)C(=O)N2)c(C(=O)O)c1 (stereo not drawn) [Imazethapyr]
Brachiaria eruciformis; [3]
  % Weed control burn down symptoms generation Observed: 8%
Brachiaria eruciformis; [4]
  % Weed control burn down symptoms generation Observed: 10%
Brachiaria eruciformis; [5]
  % Weed control burn down symptoms generation Observed: 20%
Brachiaria eruciformis; [6]
  % Weed control burn down symptoms generation Observed: 22%
Brachiaria eruciformis; [7]
  % Weed control burn down symptoms generation Observed: 0%
Brachiaria eruciformis; [8]
  % Weed control burn down symptoms generation Observed: 0%
Brachiaria eruciformis; [9]
  % Weed control burn down symptoms generation Observed: 0%
Brachiaria eruciformis; [10]
  % Weed control burn down symptoms generation Observed: 15%
[1]; [3]
  % Weed control burn down symptoms generation Observed: 0%
[1]; [4]
  % Weed control burn down symptoms generation Observed: 0%
[1]; [5]
  % Weed control burn down symptoms generation Observed: 25%
[1]; [6]
  % Weed control burn down symptoms generation Observed: 30%
[1]; [7]
  % Weed control burn down symptoms generation Observed: 0%
[1]; [8]
  % Weed control burn down symptoms generation Observed: 0%
[1]; [9]
  % Weed control burn down symptoms generation Observed: 0%
[1]; [10]
  % Weed control burn down symptoms generation Observed: 0%
Echinochloa crusgalli; [3]
  % Weed control burn down symptoms generation Observed: 15%
Echinochloa crusgalli; [4]
  % Weed control burn down symptoms generation Observed: 18%
Echinochloa crusgalli; [5]
  % Weed control burn down symptoms generation Observed: 18%
Echinochloa crusgalli; [6]
  % Weed control burn down symptoms generation Observed: 20%
Echinochloa crusgalli; [7]
  % Weed control burn down symptoms generation Observed: 8%
Echinochloa crusgalli; [8]
  % Weed control burn down symptoms generation Observed: 12%
Echinochloa crusgalli; [9]
  % Weed control burn down symptoms generation Observed: 16%
Echinochloa crusgalli; [10]
  % Weed control burn down symptoms generation Observed: 18%
[2]; at 14 days
  Control on targeted weeds, applied alone: no or very less control
[2]; at 21 days
  Control on targeted weeds, applied alone: no or very less control
Soybean; soybean, in vivo, 1 days after application
  Phytotoxicity score: 0
Soybean; soybean, in vivo, 3 days after application
  Phytotoxicity score: 0
Soybean; soybean, in vivo, 7 days after application
  Phytotoxicity score: 0
Soybean; soybean, in vivo, 14 days after application
  Phytotoxicity score: 0
Soybean; soybean, in vivo, 21 days after application
  Phytotoxicity score: 0
Commelina benghalensis; [3]
  % Weed control burn down symptoms generation Observed: 6%
Commelina benghalensis; [4]
  % Weed control burn down symptoms generation Observed: 22%
Commelina benghalensis; [5]
  % Weed control burn down symptoms generation Observed: 35%
Commelina benghalensis; [6]
  % Weed control burn down symptoms generation Observed: 56%
Commelina benghalensis; [7]
  % Weed control burn down symptoms generation Observed: 0%
Commelina benghalensis; [8]
  % Weed control burn down symptoms generation Observed: 13%
Commelina benghalensis; [9]
  % Weed control burn down symptoms generation Observed: 20%
Commelina benghalensis; [10]
  % Weed control burn down symptoms generation Observed: 45%
Cyanotis axillaris; [3]
  % Weed control burn down symptoms generation Observed: 12%
Cyanotis axillaris; [4]
  % Weed control burn down symptoms generation Observed: 25%
Cyanotis axillaris; [5]
  % Weed control burn down symptoms generation Observed: 447%
Cyanotis axillaris; [6]
  % Weed control burn down symptoms generation Observed: 0%
Cyanotis axillaris; [7]
  % Weed control burn down symptoms generation Observed: 0%
Cyanotis axillaris; [8]
  % Weed control burn down symptoms generation Observed: 7%
Cyanotis axillaris; [9]
  % Weed control burn down symptoms generation Observed: 20%
Cyanotis axillaris; [10]
  % Weed control burn down symptoms generation Observed: 36%
Parthenium hysterophorus; [3]
  % Weed control burn down symptoms generation Observed: 0%
Parthenium hysterophorus; [4]
  % Weed control burn down symptoms generation Observed: 6%
Parthenium hysterophorus; [5]
  % Weed control burn down symptoms generation Observed: 11%
Parthenium hysterophorus; [6]
  % Weed control burn down symptoms generation Observed: 28%
Parthenium hysterophorus; [7]
  % Weed control burn down symptoms generation Observed: 0%
Parthenium hysterophorus; [8]
  % Weed control burn down symptoms generation Observed: 4%
Parthenium hysterophorus; [9]
  % Weed control burn down symptoms generation Observed: 6%
Parthenium hysterophorus; [10]
  % Weed control burn down symptoms generation Observed: 15%
